In PubChem BioAssay (NCI):
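How tested: cells in 96-well plates exposed to compound for 48 hours at five concentrations. Definition used: TGI = concentration required for complete inhibition of growth.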

Key:
Experiment in all cases: NCI tumour cell line growth inhibition, 48 h
SNB-78 CNS = test system: SNB-78 CNS
ACHN renal = test system: ACHN renal
NCI-H460 lung = test system: NCI-H460 lung
SF-268 CNS = test system: SF-268 CNS
SF-295 CNS = test system: SF-295 CNS
UO-31 renal = test system: UO-31 renal
HOP-18 NSCLC = test system: HOP-18 NSCLC
RXF 393 renal = test system: RXF 393 renal
XF 498 CNS = test system: XF 498 CNS
UACC-257 melanoma = test system: UACC-257 melanoma
KM12 colon = test system: KM12 colon
DMS 114 small cell lung = test system: DMS 114 small cell lung
NCI-H23 lung = test system: NCI-H23 lung
A549 NSCLC = test system: A549 NSCLC
COLO 205 colon = test system: COLO 205 colon
M19-MEL melanoma = test system: M19-MEL melanoma
OVCAR-3 ovarian = test system: OVCAR-3 ovarian
LXFL 529 NSCLC = test system: LXFL 529 NSCLC
SK-MEL-5 melanoma = test system: SK-MEL-5 melanoma
DLD-1 colon = test system: DLD-1 colon
U251 CNS = test system: U251 CNS
MOLT-4 leukemia = test system: MOLT-4 leukemia
OVCAR-8 ovarian = test system: OVCAR-8 ovarian
SW-620 colon = test system: SW-620 colon
MALME-3M melanoma = test system: MALME-3M melanoma
SNB-19 CNS = test system: SNB-19 CNS
SF-539 CNS = test system: SF-539 CNS
SN12C renal = test system: SN12C renal
M14 melanoma = test system: M14 melanoma
EKVX NSCLC = test system: EKVX NSCLC
RPMI-8226 leukemia = test system: RPMI-8226 leukemia
SK-MEL-2 melanoma = test system: SK-MEL-2 melanoma
CAKI-1 renal = test system: CAKI-1 renal
HL-60(TB) leukemia = test system: HL-60(TB) leukemia
HT29 colon = test system: HT29 colon
RXF-631 renal = test system: RXF-631 renal
HCT-15 colon = test system: HCT-15 colon
SNB-75 CNS = test system: SNB-75 CNS
786-0 renal = test system: 786-0 renal
UACC-62 melanoma = test system: UACC-62 melanoma
A498 renal = test system: A498 renal
CCRF-CEM leukemia = test system: CCRF-CEM leukemia
OVCAR-4 ovarian = test system: OVCAR-4 ovarian
NCI-H522 lung = test system: NCI-H522 lung
HCT-116 colon = test system: HCT-116 colon
K-562 leukemia = test system: K-562 leukemia
HOP-92 NSCLC = test system: HOP-92 NSCLC
DMS 273 small cell lung = test system: DMS 273 small cell lung
IGROV1 ovarian = test system: IGROV1 ovarian
LOX IMVI melanoma = test system: LOX IMVI melanoma
TK-10 renal = test system: TK-10 renal
KM20L2 colon = test system: KM20L2 colon
SK-OV-3 ovarian = test system: SK-OV-3 ovarian
SK-MEL-28 melanoma = test system: SK-MEL-28 melanoma
OVCAR-5 ovarian = test system: OVCAR-5 ovarian
HOP-62 NSCLC = test system: HOP-62 NSCLC

`NS(=O)(=O)c1ccc(NC(=O)c2cccc3c(Nc4ccc(S(N)(=O)=O)cc4)c4ccccc4nc23)cc1` was tested, and the TGI (SNB-78 CNS) was > 100 µM, the TGI (ACHN renal) was > 100 µM and the TGI (NCI-H460 lung) was > 100 µM. The TGI (SF-268 CNS) was 65.3 µM, the TGI (SF-295 CNS) was > 100 µM and the TGI (UO-31 renal) was > 100 µM. For the same compound, the TGI (HOP-18 NSCLC) was > 100 µM, the TGI (RXF 393 renal) was > 100 µM and the TGI (XF 498 CNS) was 74.6 µM. For the same compound, the TGI (UACC-257 melanoma) was > 100 µM, the TGI (KM12 colon) was 25.6 µM and the TGI (DMS 114 small cell lung) was > 100 µM. For the same compound, the TGI (NCI-H23 lung) was > 100 µM, the TGI (A549 NSCLC) was > 100 µM and the TGI (COLO 205 colon) was > 100 µM. For the same compound, the TGI (M19-MEL melanoma) was > 100 µM, the TGI (OVCAR-3 ovarian) was 35.2 µM and the TGI (LXFL 529 NSCLC) was 85.9 µM. For the same compound, the TGI (SK-MEL-5 melanoma) was > 100 µM, the TGI (DLD-1 colon) was > 100 µM and the TGI (U251 CNS) was > 100 µM. For the same compound, the TGI (MOLT-4 leukemia) was 39.8 µM, the TGI (OVCAR-8 ovarian) was > 100 µM and the TGI (SW-620 colon) was > 100 µM. The TGI (MALME-3M melanoma) was > 100 µM, the TGI (SNB-19 CNS) was > 100 µM and the TGI (SF-539 CNS) was > 100 µM. The TGI (SN12C renal) was > 100 µM, the TGI (M14 melanoma) was > 100 µM and the TGI (EKVX NSCLC) was > 100 µM. The TGI (RPMI-8226 leukemia) was 39.1 µM, the TGI (SK-MEL-2 melanoma) was 82.3 µM and the TGI (CAKI-1 renal) was > 100 µM. The TGI (HL-60(TB) leukemia) was 96.8 µM, the TGI (HT29 colon) was 68.4 µM and the TGI (RXF-631 renal) was 11.1 µM. For the same compound, the TGI (HCT-15 colon) was > 100 µM, the TGI (SNB-75 CNS) was > 100 µM and the TGI (786-0 renal) was > 100 µM. For the same compound, the TGI (UACC-62 melanoma) was > 100 µM, the TGI (A498 renal) was > 100 µM and the TGI (CCRF-CEM leukemia) was 87.6 µM. For the same compound, the TGI (OVCAR-4 ovarian) was 55.6 µM, the TGI (NCI-H522 lung) was 49.9 µM and the TGI (HCT-116 colon) was > 100 µM. The TGI (K-562 leukemia) was 82.1 µM, the TGI (HOP-92 NSCLC) was > 100 µM and the TGI (DMS 273 small cell lung) was 5.15 µM. For the same compound, the TGI (IGROV1 ovarian) was > 100 µM, the TGI (LOX IMVI melanoma) was > 100 µM and the TGI (TK-10 renal) was > 100 µM. For the same compound, the TGI (KM20L2 colon) was > 100 µM, the TGI (SK-OV-3 ovarian) was > 100 µM and the TGI (SK-MEL-28 melanoma) was > 100 µM. For the same compound, the TGI (OVCAR-5 ovarian) was > 100 µM and the TGI (HOP-62 NSCLC) was > 100 µM.
